Test results as given in patent US20170071903A1, “USE OF ERIBULIN AND MTOR INHIBITORS AS COMBINATION THERAPY FOR THE TREATMENT OF CANCER” (Eisai R&D Management Co., Ltd., priority 2014, published 2017).
Where a name gives a salt, the structure may show the parent alone. Read-outs that look alike come from different tables or passages of the source.

Assays:
[1] = test system: MX-1 human mammary tumor xenografts; experiment: Growth of subcutaneously-implanted MX-1 human mammary tumor xenografts in mice
Description: A total of 120 tumor bearing mice were divided into twelve groups of 10 mice. […] All treatments were initiated 10 days after the implantation of tumor xenografts.
Six-weeks-old female, athymic NCr-nu/nu mice were purchased from Charles River Laboratories (Wilmington, Mass.) and acclimated in the laboratories for 10 days prior to experimentation. The animals were housed in microisolator cages, five per cage with a 12-hour light/dark cycle. The animals received filtered Birmingham municipal water and sterilized Teklad Global 16% protein rodent diet (2016S, Harlan Laboratories, Inc.) ad libitum. No consumable enrichment was provided. Enrich-n'Nest paper rolls (the Andersons Lab Bedding Products, Maumee, Ohio) were provided in each cage as manipulanda. Cages were changed twice weekly. The animals were observed daily and clinical signs were noted.
Each mouse was implanted SC near the right flank with a 30-40 mg fragment of MX-1 human mammary tumor from an in vivo passage using a 13-gauge needle. The day of tumor fragments implantation was designated as Day 0. Individual tumors of 120 animals grew to 100-245 mg in weight (100-245 mm^3 in size) on the day of treatment initiation, Day 10 after tumor fragments implantation. Those animals selected with tumors in the proper size range were assigned to twelve treatment groups so that the mean and median tumor weights in all groups on the first day of treatment were as close to each other as possible (mean tumor weights ranged from 160 to 168 mg, median tumor weights were 153 or 162 mg).
The solution was allowed to stand for 2-3 minutes to make sure it was fully in solution. […] On each day of treatment, an aliquot was thawed at room temperature and diluted with saline to yield a concentration of 0.06 mg/mL in 2.5% DMSO/97.5% saline. Lower concentrations of 0.04 and 0.02 mg/mL were achieved by dilution of a portion of the 0.06 mg/mL solution with 2.5% DMSO/97.5% saline. Bottles with dosing solutions were stored at 4° C. between formulation and administration.
0.5% MC/0.2% T80 in WFI was formulated and the solution was stored at 4° C. […] A portion of the 4 mg/mL cloudy solution was diluted with 0.5% MC/0.2% T80 in WFI to 2 mg/mL. Bottles with dosing solutions were stored at 4° C. between formulation and administration.
The experiment consisted of a vehicles-treated control group and eleven drug-treated groups of 10 mice per group for a total of 120 mice on the first day of treatment. All treatments were initiated on Day 10. […] On the days when both compounds were administered, E7389 was administered to all combination groups first [−(0)]
Animals were observed once daily for mortality and morbidity. The SC tumors were measured and the animals were weighed twice weekly starting with the first day of treatment, Day 10 after tumor fragment implantation.

[2] = Text: No consumable enrichment was provided. […] Cages were changed twice weekly.
All treatments were initiated on Day 10.

[3] = test system: twenty-five cell line panel; experiment: Anti-proliferation assay (ATPLite, growth inhibition), single agent dose response; type: cell-based; settings: median across cell lines reaching >50% inhibition; 72 h; three-fold, ten-point dose titration
Description: Cells are thawed from a liquid nitrogen preserved state. […] The calculation for synergy score is provided below. […] This formula is derived from the Growth Inhibition calculation used in the National Cancer Institute's NCI-60 high throughput screen. All single agent and combination data analysis are performed in growth inhibition. Eribulin had varying activity across a twenty-five cell line panel. Single agent activity was assessed using a three-fold, ten-point dose titration. Twenty-three cell lines were evaluated in 1536-well plate format. Two additional cell lines were evaluated in 384-well plate format.

[4] = E7389 0.2 mg/kg/injection IV Q4Dx4 (Group 4)
[5] = E7389 0.4 mg/kg/injection IV Q4Dx4 (Group 3)
[6] = everolimus 20 mg/kg/dose PO Q1Dx16 (Group 6)
[7] = everolimus 40 mg/kg/dose PO Q1Dx16 (Group 5)

In the case of `C=C1C[C@@H]2CC[C@@]34C[C@H]5O[C@H]6[C@@H](O3)[C@H]3O[C@H](CC[C@@H]3O[C@H]6[C@H]5O4)CC(=O)C[C@@H]3[C@@H](OC)[C@@H](C[C@H](O)CN)O[C@H]3C[C@H]3O[C@@H](CC[C@@H]1O2)C[C@@H](C)C3=C` [E7389, II, 15:18,21:24,28-triepoxy-7,9-ethano-12,15-methano-9H,15H-furo[3,2-i]furo[2′,3′:5,6]pyrano[4,3-b][1,4]dioxacyclopentacosin-5(4H)-one, 2-[(2S)-3-amino-2-hydroxypropyl]hexacosahydro-3-methoxy-26-methyl-20,27-bis(methylene)-, (2R,3R,3aS,7R,8aS,9S,10aR,11S,12R,13aR,13bS,15S,18S,21S,24S,26R,28R,29aS)-methanesulfonate (salt)], the “T/C value on Day 34 (median tumor weight)” value (shortened to “T/C value”) [1, 4] is reported as 51%, the “median tumor growth delay (T-C)” value [1, 4] is reported as greater than 6.3 days and the “T/C value” value [1, 5] is reported as 13%. For the same compound, the “median tumor growth delay (T-C)” value [1, 5] was 17.7 days, the “number of tumor-free survivors on day of study termination (Day 62)” value ([1]; E7389 0.6 mg/kg/injection (Group 2)) was “five” and the “number of complete tumor regressions” value ([1]; E7389 0.6 mg/kg/injection (Group 2), out of ten animals) was “six”. For the same compound, the “T/C value” value ([1]; E7389 0.6 mg/kg/injection IV Q4Dx4 (Group 2)) was 0%, the “median tumor growth delay (T-C)” value ([1]; E7389 0.6 mg/kg/injection IV Q4Dx4 (Group 2), time to four tumor mass doublings) was greater than 33.8 days and the “inhibition of the growth of the MX-1 mammary tumor xenografts” value ([1]; E7389 0.6, 0.4 and 0.2 mg/kg/injection IV) was “very effective”. The tolerability / deaths ([2]; E7389 0.6, 0.4 and 0.2 mg/kg/injection IV Q4Dx4 (Groups 2-4)) was “tolerated without treatment-related deaths”, the “maximum tolerated dose (MTD)” value ([2]; E7389 IV Q4Dx4, doses up to 0.6 mg/kg/injection) was “not reached” and the “dryness of the skin” value ([2]; mouse, in vivo) was “not noted”. For the same compound, the “mean body weight loss” value ([2]; mouse, in vivo, iv, 0.2 mg/kg) was “did not result in mean body weight loss”, the “maximum mean body weight loss” value ([2]; mouse, in vivo, iv, 0.4 mg/kg) was 1% and the “maximum mean body weight loss” value ([2]; mouse, in vivo, iv, 0.6 mg/kg) was 1%.
For `C=C1C[C@@H]2CC[C@@]34C[C@H]5O[C@H]6[C@@H](O3)[C@H]3O[C@H](CC[C@@H]3O[C@H]6[C@H]5O4)CC(=O)C[C@@H]3[C@@H](OC)[C@@H](C[C@H](O)CN)O[C@H]3C[C@H]3O[C@@H](CC[C@@H]1O2)C[C@@H](C)C3=C` [Eribulin], the GI50 [3] was 0.51 nM.
In the case of `CO[C@H]1C[C@@H]2CC[C@@H](C)[C@@](O)(O2)C(=O)C(=O)N2CCCC[C@H]2C(=O)O[C@H]([C@H](C)C[C@@H]2CC[C@@H](OCCO)[C@H](OC)C2)CC(=O)[C@H](C)/C=C(\C)[C@@H](O)[C@@H](OC)C(=O)[C@H](C)C[C@H](C)/C=C/C=C/C=C/1C` [everolimus], the “T/C value” value [1, 6] is reported as 74%, the “median tumor growth delay (T-C)” value [1, 6] is reported as 4.0 days and the “T/C value” value [1, 7] is reported as 46%. The “median tumor growth delay (T-C)” value [1, 7] was 6.1 days, the “inhibition of the growth of the MX-1 mammary tumor xenografts” value ([1]; everolimus 40 and 20 mg/kg/dose PO) was “minimally effective” and the “maximum tolerated dose (MTD)” value ([2]; mouse, in vivo, po) was “not reached”.
